In ChEMBL document CHEMBL3991943, “Pharmaceutical formulations comprising salts of a protein kinase inhibitor and methods of using same” (2013):
Activity calls are given as the source filed them. The calls are words filed in the database; no cut-off is given here.

Legend:
[1] = biological target: Mast/stem cell growth factor receptor Kit (Homo sapiens) (UniProt P10721); assay: Inhibition of c-Kit in human PANC1 cells assessed as reduction in Erk phosphorylation at 50 uM; format: cell-based
[2] = system: Mus musculus; assay: Toxicity in athymic nude mouse xenografted with human A549 cells assessed as loss of body weight at 10 mg/kg, po qd administered 5 days for 3 weeks; format: organism-based; details: in vivo

Sequence of Mast/stem cell growth factor receptor Kit (Homo sapiens) (P10721 whole entry): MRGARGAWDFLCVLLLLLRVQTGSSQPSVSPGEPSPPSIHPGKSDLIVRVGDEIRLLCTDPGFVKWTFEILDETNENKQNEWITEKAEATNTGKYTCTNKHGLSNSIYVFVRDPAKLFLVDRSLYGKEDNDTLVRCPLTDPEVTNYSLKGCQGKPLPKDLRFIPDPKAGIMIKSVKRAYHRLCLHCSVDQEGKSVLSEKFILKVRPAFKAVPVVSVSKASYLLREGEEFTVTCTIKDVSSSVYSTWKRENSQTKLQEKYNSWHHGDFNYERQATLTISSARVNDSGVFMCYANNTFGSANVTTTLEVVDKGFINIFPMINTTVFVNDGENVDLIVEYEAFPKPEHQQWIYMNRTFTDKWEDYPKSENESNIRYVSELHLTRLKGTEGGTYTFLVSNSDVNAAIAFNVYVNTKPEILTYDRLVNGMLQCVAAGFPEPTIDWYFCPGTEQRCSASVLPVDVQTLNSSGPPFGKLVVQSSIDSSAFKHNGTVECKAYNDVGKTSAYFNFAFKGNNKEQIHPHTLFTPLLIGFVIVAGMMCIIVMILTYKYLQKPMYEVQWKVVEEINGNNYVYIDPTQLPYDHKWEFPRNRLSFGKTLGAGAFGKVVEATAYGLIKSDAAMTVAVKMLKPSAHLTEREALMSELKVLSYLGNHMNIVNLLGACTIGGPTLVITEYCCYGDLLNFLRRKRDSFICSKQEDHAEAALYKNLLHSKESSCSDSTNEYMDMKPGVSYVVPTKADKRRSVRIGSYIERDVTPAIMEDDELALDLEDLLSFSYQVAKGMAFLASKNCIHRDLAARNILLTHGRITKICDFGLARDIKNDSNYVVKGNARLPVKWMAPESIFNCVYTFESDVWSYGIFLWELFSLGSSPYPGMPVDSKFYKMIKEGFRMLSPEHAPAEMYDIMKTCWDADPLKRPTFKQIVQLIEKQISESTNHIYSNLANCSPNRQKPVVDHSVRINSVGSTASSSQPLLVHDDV

Row | Structure (SMILES) | inhibition [1] | Activity [2]
1 | COc1cccc(-c2cc(=O)c3ccccc3o2)c1N | Active | 
2 | O=c1[nH]cc(F)c(=O)[nH]1 [FLUOROURACIL] |  | Non-Toxic
